Measurements from patent US20040167226A1, “Methods for the treatment of pain and traumatic injury using benzamides and compositions containing the same” (priority 2002, published 2004).
“Also recorded” adds a separate entry of the source.

What was measured:
[1] = Absolute oral bioavailability and blood t1/2 of Compound A; assay type: in vivo, rats; settings: rat, whole blood
Method: The absolute oral bioavailability of Compound A was determined by comparing the area-under-the-curve (“AUC”) following a 20 mg/kg IV dose of Compound A (2 ml/kg, 75% PEG solution) to a 20 mg/kg dose of Compound A dissolved in 1% methyl cellulose. Blood concentrations were determined at 0, 0.083, 0.15, 0.5, 1, 2, 4, 8, and 24 hours post-IV dose and 0, 0.5, 1, 2, 4 and 8 hours post-oral dose. Four animals were dosed orally and four animals were dosed intravenously.
In another experiment, six rats were orally dosed with 30 mg/kg of Compound A dissolved in 1% methyl cellulose. Blood samples were taken at 0.5, 1, 2, 5, 8, 12, 16, 20 and 24 hours. The apparent t1/2 for Compound A in the blood was 8 hours. This is a very long t1/2 for a drug in rats and is a good predictor of once-a-day dosing for Compound A in humans. Such a dosing regimen would be a significant therapeutic advantage in the clinic.
The blood samples were analyzed by HPLC. Detection was by UV at 262 nm. Responses were converted to concentrations by comparison to responses from calibration standards injected onto the column. The resulting concentrations were used to calculate the AUC.

[2] = system: neurofilament (nerve fiber density); assay: Immunohistochemistry of neurofilament on transverse spinal cord sections; assay type: in vivo; settings: rats after spinal cord injury; anti-neurofilament staining; sections rostral and caudal to epicenter
Method: Compound A was tested in both the rat dorsal hemisection (Guth, L. et al. (1980), J. Neurosurgery 52: 73-86) and contusion models (Scheff, S. W. (2003), J. Neurotrauma 20: 179-193) for evaluation of efficacy. These models are widely used in the field of spinal cord injury and replicate many of the pathological aspects found in humans who have sustained a spinal cord injury. Rats were subjected to an experimental spinal cord injury at T8, and were given Compound A shortly thereafter. Behavioral tests to assess the locomotion deficits were performed after the lesion. At the end of the experiment, animals were sacrificed and the spinal cord was collected for histopathological analysis. […] Histological assessment of the tissue at the site of injury was also made in both the drug treated and untreated group. In particular, subsequent to the behavioral measurement, spinal cord tissue from each animal was obtained and serial transverse tissue sections were stained with either anti-neurofilament antibody or antibodies specific for the inflammatory markers, tumor necrosis factor alpha (TNFα) and for the inducible form of nitric oxide synthetase (iNOS), followed by incubation with Alexa Fluor®-conjugated secondary antibodies.

[3] = system: Taxol-induced mechanical allodynia; assay: Taxol-induced neuropathic pain mouse model, von Frey filament paw withdrawal; assay type: in vivo, C57B16 mice; settings: mice
Method: C57B16 male mice were preconditioned (trained) in the enclosure one hour per day in the morning for one week prior to the baseline measurement. The baseline response to the mechanical stimulus was measured using a von Frey filament with 0.6 gram of force (von Frey number 3.84). Briefly, the von Frey filament, was applied to the plantar area of the right hind paw of mouse. The frequency of paw withdrawal was calculated in terms of percentage response, where the higher percentage indicates more pain, whereas the lower the percentage indicates less pain. Based on past experience with the C57B16 strain of adult male mice, animals with baseline no greater than 40% of response were included in further studies, while those with greater than 40% of paw withdrawal response to this particular force of stimulus, known as spontaneous mechanical allodynia, were discarded from these studies. The paw withdrawal behavior includes, licking the stimulated paw, vigorously shaking the paw and active avoidance upon application of innocuous mechanical stimuli. For those mice without spontaneous mechanical allodynia, Taxol was administered to the mice daily, 5 days a week, for longer than a one week period. Generally, mice treated with daily i.p. administration of 1 mg/kg (body weight) of Taxol develop relatively stable mechanical allodynia, neuropathic pain, on day 9 and thereafter. Prior to compound A administration, the responses of mice to 0.6 gram of von Frey filament were measured for two consecutive days in the morning. Only those mice with paw withdrawal response to this particular von Frey filament stimulus no less than 60%, counted as mechanical allodynia, were included for later testing with the compounds of interest.
Five-week old, male C57B1/6 mice were purchased from Charles River and housed at the Renovis animal facility in South San Francisco. Mice were trained for one week in an enclosure made of Plexiglas with dimensions of 2 in×2.5 in×3.5 in (W, H, and L) with a meshed metal support. The baseline of response to mechanical stimulus was measured using a von Frey Filament (0.6 g=3.84 mN). Normally, the baseline response is between 0 to 40%.
Taxol was dissolved (1 mg/ml) in 50% Cremophor EL and 50% alcohol, and freshly diluted with saline to the final concentration of 0.2 mg/ml in 10% Cremophor EL, 10% alcohol. Mice were administered Taxol at 1 mg/kg of body weight, via ip daily, while the animals of the control group received vehicle (10% Cremophor EL and 10% alcohol in saline).
Five-week old C57B1/6 male mice were trained for one week in the von Frey filament test, and baseline response (percent paw withdrawal over 40 tests) to a von Frey filament (0.6 gram=3.84 mN) was measured (average shown in the graph as “baseline (mean)”=31%).
Trained mice were treated with 1 mg/kg (body weight) taxol in 10% Cremophor EL/10% ethanol via ip injection daily through the end of the experiment in order to induce the neuropathic pain state.
The percent pain response (percent paw withdrawal over 40 tests) with a von Frey filament (0.6 gram=3.84 mN) was measured at day 8 and day 9 after pain induction (average of these two shown in the graph as “pre-dosing (mean)”=75%). Those animals with either sensitive baseline (>40% response) or without pain (<60% response) after 9 days of taxol injection were not included in the data analysis. Animals receiving this daily dose of Taxol will develop neuropathic pain.
[…] The animals were then placed in the enclosure for assay. Mechanical allodynia was measured with von Frey filament (0.6 g=3.84 mN) at various times after administration.
Nine taxol-treated animals received […] vehicle (75% polyethylene glycol (PEG)) via ip injection; 8 taxol-treated animals were injected ip with a suspension of Compound A in vehicle at dose of 50 mg/kg (body weight). […]

CC(=O)Nc1ccc(C(=O)NC(C)(C)C)cc1 [Compound A, N-tert-butyl-4-acetamidobenzamide]
bioavailability ([1]; AUC of 20 mg/kg oral (1% methyl cellulose) vs 20 mg/kg IV (75% PEG), read-out: absolute bioavailability through oral dosing): 52%
half-life ([1]; rats, 30 mg/kg oral in 1% methyl cellulose, read-out: apparent t1/2 in the blood (converted)): 8 h
nerve fiber density in spinal cord tissue vs vehicle control [2]: significantly higher nerve fiber density
mechanical allodynia under chronic dosing vs vehicle control ([3]; 5 mg/kg/per day and 10 mg/kg/per day i.p., one dose per day, Cremophor EL/ETOH/saline): less mechanical allodynia
percentage response to 0.6 gram von Frey filament ([3]; 10 mg/kg i.p. in Cremophor EL/ETOH/saline, 3-hour postdosing, +/-SEM): 40+/−10.9%
percentage response to 0.6 gram von Frey filament ([3]; 10 mg/kg i.p. in Cremophor EL/ETOH/saline, 6-hour postdosing, +/-SEM): 42+/−95%
pain under chronic dosing ([3]; 10 mg/kg/per day i.p., Cremophor EL/ETOH/saline): much less pain
percentage response to 0.6 gram von Frey filament ([3]; 20 mg/kg i.p. in Cremophor EL/ETOH/saline, 3-hours postdosing, not statistically significant (p 0.08)): 59+/−8.1%
analgesic effect on Taxol-induced pain (in words) ([3]; 50 mg/kg i.p. single dose in 75% PEG-200, 50 mg/kg): has activity preventing Taxol-induced pain; also recorded: strong analgesic effect
percentage of paw withdraw response to 0.6 gram von Frey filament ([3]; 50 mg/kg i.p. single dose in 75% PEG-200, 1-hour postdosing, +/-SEM): 20+/−7.6%
percentage of paw withdraw response to 0.6 gram von Frey filament ([3]; 50 mg/kg i.p. single dose in 75% PEG-200, 2-hour postdosing (so in the source), +/-SEM): 32.5+/−13.1%
percentage of paw withdraw response to 0.6 gram von Frey filament ([3]; 50 mg/kg i.p. single dose in 75% PEG-200, 24-hour postdosing, +/-SEM): 50+/−9.3%
percentage of paw withdraw response to 0.6 gram von Frey filament ([3]; 50 mg/kg i.p. single dose in 75% PEG-200, 48-hour postdosing, +/-SEM): 65+/−6.3%
time of peak analgesic efficacy post dosing ([3]; 5 and 10 mg/kg i.p. in Cremophor EL/ETOH/saline): 3 h
drug tolerance or drug accumulation under chronic dosing ([3]; 5 and 10 mg/kg/per day i.p. chronic dosing): no significant drug tolerance or drug accumulation effects
